Measured values reported in US20110217337A1, “BIOACTIVE AGENT FOR BONE TISSUE ENGINEERING” (UNIVERSITY OF CONNECTICUT, priority 2010, published 2011).

Experiments:
MC3T3-E1 cells [1] = experiment: Trypan blue viability assay; type: cell-based; conditions: 100 micromolar, days 7, 14 and 21
Description: FIG. 7. MC3T3-E1 cell viability of cells treated with 6-Bnz-cAMP compared to untreated cells. Cell viability was measured by trypan blue viability stain.
Viability: Cell viability is determined using a trypan blue viability assay. For trypan blue viability assay method, at day 7, 14, and 21, cells were collected by trypsinization and stained with trypan blue dye (MP Biochemicals LLC, Solon, Ohio). The cells were then numbered in a hemacytometer (Hausser Scientific, Horsham, Pa.) under a light microscopy (Olympus Corporation, Tokyo, Japan). Cell stained blue was scored a dead cell, while unstained cell was scored a live cell. The results are presented in % of viability.
MC3T3-E1 cells were grown in mineralization media. 6-Bnz-cAMP was added to the culture medium to a final concentration of 100 μM for experiments; mineralization media only was used for positive controls. Osteoblast-associated markers were quantitated at days 7 and 14. Markers include increased alkaline phosphatas (ALP) activity (FIG. 5) and calcium precipitation in MC3T3-E1 cells (FIG. 6). 6-Bnz-cAMP toxicity was assessed at days 7, 14, and 21 in cells treated with 100 micromolar 6-Bnz-cAMP compared to untreated cells. Trypan blue staining was used to visualize cells (FIG. 7).

[2] = test system: rat mesenchymal stem cells; experiment: Proliferation of mesenchymal stem cells seeded on PLAGA scaffolds, PicoGreen dsDNA assay; type: cell-based; conditions: each time point, day 7 to day 21
Description: FIG. 8. Effect of 6-Bnz-cAMP on the proliferation of rat mesenchymal stem cells seeded on PLAGA scaffolds. Cell proliferation was assessed by PicoGreen dsDNA assay.
Evaluation of the in vitro cellular behaviors of rabbit MSC on the 6-Bnz-cAMP loaded PLAGA microsphere based scaffold: For in vitro studies, cells are plated onto the 6-Bnz-cAMP loaded and unloaded control scaffolds. Cell adhesion is determined at 1, 3, 6 and 24 hours. Cell proliferation levels are determined at Day 3, 7, and 14 (FIG. 8). Cell differentiation and mineralization are determined at Day 7, 14, 21, and 28. At the pre-determined times, scaffolds will be removed from the medium and unattached cells are removed by washing with PBS 4 times. The in vitro assays are performed on the attached cells according to the procedures described above in Example 3.

MC3T3E1 cells = experiment: Cell adhesion on PLAGA matrices (crystal violet stain); type: cell-based; conditions: 100 μM vs untreated, adhesion for at least 1 h
Description: FIG. 2. Effects of 6-Bnz-cAMP on cell adhesion in MC3T3E1 on PLAGA matrices. Cells were treated with 100 μM 6-Bnz-cAMP or untreated. Cells were allowed to adhere for at least 1 h, and nonadherent cells were removed by washing with phosphate buffer saline (PBS). The adhered cells were stained with crystal violet solution for 15 minutes at room temperature and the absorbed stain dye was then solubilized in 1% SDS solution. The amount of dye taken up by the cells was measured in a spectrophotometer. The plots shown are representative of two independent experiments, each done in triplicate (n=3). Error bars represent SD.
For these experiments, the polymer component of the scaffold, poly(lactic-co-glycolide) (PLAGA) was selected because of its documented degradability and biocompatibility.
More specifically, thin film discs of poly(lactic-co-glycolide) (PLAGA) were fabricated using a traditional solvent-casting method. In this process, the polymer was first dissolved in methylene chloride, then poured into a Teflon-coated dish. The dishes were then placed in a −20° C. freezer to allow solvent evaporation. […]
Adhesion: In the cell adhesion study presented in FIG. 2 cells were allowed to adhere for at least 1 h, and nonadherent cells were removed by washing with phosphate buffer saline (PBS). […] The amount of dye taken up by the cells was measured in a spectrophotometer.

MC3T3-E1 cells [3] = experiment: Matrix mineralization, quantitative calcium assay; type: cell-based; conditions: 100 μM in mineralization medium vs mineralization medium alone; day 21
Description: FIG. 6. 6-Bnz-cAMP promotes osteoblastic mineralization by day 21. After 20 days of culture of osteoblast-like MC3T3-E1 cells in mineralization medium with or without 6-Bnz-cAMP, quantitative calcium levels were determined. […] To facilitate the comparison of different experimental settings, the level of calcium measurement of the “Control” cells cultured in the regular growth medium was set to one relative unit.
MC3T3-E1 cells were grown in mineralization media (The minimal media described in Example 1 with, 1% of antibiotic (100 U/ml penicillin G and […] streptomycin), 3 mM β-glycerolphosphate, and 10 μg/ml ascorbic acid). 6-Bnz-cAMP was added to the culture medium to a final concentration of 100 μM for experiments; mineralization media only was used for positive controls. For the qualitative determination of calcified matrix mineralization, at day 21, media were removed and cells were rinsed with calcium-free PBS for 3 times. The precipitated calcium of mineralized matrix was dissolved overnight in 0.6N hydrochloric acid at 4° C. The extracted calcium was then measured with a calcium assay kit (Calcium Liquicolor, Stanbio Laboratory, Boerne, Tex.) according to the manufacturer's instructions. The absorbance values were normalized to cellular DNA.

[4] = designed to resist enzymatic degradation in vivo; cited from earlier work
phophodiesterase = conditions: cited from earlier work

SMILES: O=C(Nc1ncnc2c1ncn2C1O[C@@H]2COP(=O)([O-])O[C@H]2[C@H]1O)c1ccccc1.[Na+] (stereo partly drawn) [6-Bnz-cAMP, N^6-Benzoyladenosine-3′,5′-cyclic monophosphate]
- cell viability vs untreated cells (MC3T3-E1 cells [1]): No significant differences
- cell proliferation vs untreated control [2]: No significant differences
- initial cell adhesion (MC3T3E1 cells): enhances the initial cell adhesion
- calcium deposition (MC3T3-E1 cells [3]): further enhanced calcium deposition
- half-life [4]: long half-life
- hydrolysis by phophodiesterase (phophodiesterase): resistant to hydrolysis
